For orientation: IC50 means the concentration that gives 50% inhibition. As usually defined, the GI50 is the concentration giving 50% growth inhibition.

Assay [1] concerns the target PARP-1 enzyme (Homo sapiens (Human), UniProt P09874). Put plainly: Poly(ADP-ribose)polymerase [PARP-1] enzyme inhibitory activity (Trevigen PARP Assay kit). As to conditions: read-out: PARP-1 Inhibitory activity IC50. The class given is biochemical. In short, it runs like this: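 On histone-coated plates, PARP-1 (0.12 unit/well) reacted with compound for 30 min at 25 °C in a 2× cocktail of 1.95 mM NAD+, 50 μM biotinylated NAD+ and activated DNA (Tris pH 8.0, 25 mM MgCl2). Biotin-ribosylated histone was detected with streptavidin-HRP and TACS-Sapphire substrate, stopped with HCl and read at 450 nm.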

The test system of a further assay is A549 cell line. The assay can be described thus: Cell growth inhibition of cancer cell lines (SRB assay), A549. The format is cell-based. As to conditions: for SN-38 PF50 / Temozolomide PF50: 2 μM compound; for SN-38 PF50: GI50 SN-38 alone / GI50 with compound; for Temozolomide PF50: GI50 temozolomide alone / GI50 with compound; for GI50: Homo sapiens, 72 hours. The procedure: (§1) The tests on cell growth inhibitory activity were performed with respect to A549 (US, ATCC), SK-OV-3 (Korea Research Institute of Chemical Technology; KRICT), HT-29 (US, ATCC), MCF-7 cell (US, ATCC), using Sulforhodamin-B <SRB> Assay (1989, US National Cancer Institute (NCI)) which was developed to measure the in vitro anti-cancer activity of the drug. […] The samples of the compounds of the Examples according to the present invention were used for the tests, and before the tests, the samples were dissolved in dimethylsulfoxide and diluted with the culture medium (RPMI 1640) to be used. The final concentration of the sample was varied in the range of 0.3˜100 μM. After the culture medium was removed from the 96 well plates, the diluted sample solution was added by 100 μl, and cultured in 37° C., 5% CO2 culture medium for 72 hours. The time zero (Tz) plates were collected at the time point of adding the sample. Upon completing the culture, the medium was removed from each well along with Tz plate, then cold 10% trichloroacetic acid (TCA) was added by 100 μl per well. The wells were left at 4° C. for 1 hour, so that the cells were fixed into the bottom of the plates. After the cells were fixed, the plates were rinsed with water five to six times to remove the remaining trichloroacetic acid solution, and moisture was completely dried at room temperature. The cells were dyed for 30 minutes by adding the dye solution in which 0.4% sulforhodamine-B was dissolved in 1% acetic acid solution, by 100 μl per dried wells. The above was rinsed again with 1% acetic acid solution five to six times to ensure that sulforhodamine-B which had not attached to the cells was removed. The plates were again dried at room temperature. 100 μl of 10 mM tris-buffer was then added to dissolve the dye, and the optical density (OD) at 520 nm was measured with the microplate reader. GI50 of the sample regarding cancer cell was calculated as explained below. Time zero (Tz), control value (C) and test value (T) were obtained, in which Tz corresponds to OD value of time at which the sample is applied and culture is started, C corresponds to OD value of the well which is cultured without treatment with the sample, and T corresponds to OD value of the well which is treated with the sample and then cultured. The degree of cell growth inhibition of the sample was measured using: If […] [Mathematical Formula 1]
(§2) Further, the ability of Examples 2, 42, 49, 52, 72, 74, 101 to increase growth inhibition effect of temozolomide and SN-38 at 2 μM was determined.
In general terms: The SRB assay estimates cell density from bound dye.

For another assay, the system named is SK-OV-3 Cell line. Put plainly: Cell growth inhibition of cancer cell lines (SRB assay), SK-OV-3. The class given is cell-based. As to conditions: for SN-38 PF50 / Temozolomide PF50: 2 μM compound; for GI50: Homo sapiens, 72 hours. The method, then:
as §1, §2

The next assay has as its system HT-29 Cell line. Put plainly: Cell growth inhibition of cancer cell lines (SRB assay), HT-29. The format is cell-based. As to conditions: for SN-38 PF50 / Temozolomide PF50: 2 μM compound; for GI50: Homo sapiens, 72 hours. The method, then: as §1, §2
The subject of another assay is MCF-7 Cell line. The assay can be described thus: Cell growth inhibition of cancer cell lines (SRB assay), MCF-7. The class given is cell-based. As to conditions: for SN-38 PF50 / Temozolomide PF50: 2 μM compound; for GI50: Homo sapiens, MCF7, 72 hours. The procedure: as §1, §2
For assay [2], the target named is PARP-1 enzyme (Cricetulus griseus (Chinese hamster) (Cricetulus barabensis griseus), UniProt Q9R152). Put plainly: Intracellular PARP inhibitory activity (NAD(P)H released by MMS-treated CHO-K1 cells). The class given is cell-based. The procedure: In order to verify the ability of the compounds of the present invention to inhibit the PARP-1 enzyme activity, the amount of NAD(P)H accumulated on cell culture medium was measured.
Sequence of PARP-1 enzyme (Cricetulus griseus (Chinese hamster) (Cricetulus barabensis griseus), UniProt Q9R152) (Q9R152 whole entry): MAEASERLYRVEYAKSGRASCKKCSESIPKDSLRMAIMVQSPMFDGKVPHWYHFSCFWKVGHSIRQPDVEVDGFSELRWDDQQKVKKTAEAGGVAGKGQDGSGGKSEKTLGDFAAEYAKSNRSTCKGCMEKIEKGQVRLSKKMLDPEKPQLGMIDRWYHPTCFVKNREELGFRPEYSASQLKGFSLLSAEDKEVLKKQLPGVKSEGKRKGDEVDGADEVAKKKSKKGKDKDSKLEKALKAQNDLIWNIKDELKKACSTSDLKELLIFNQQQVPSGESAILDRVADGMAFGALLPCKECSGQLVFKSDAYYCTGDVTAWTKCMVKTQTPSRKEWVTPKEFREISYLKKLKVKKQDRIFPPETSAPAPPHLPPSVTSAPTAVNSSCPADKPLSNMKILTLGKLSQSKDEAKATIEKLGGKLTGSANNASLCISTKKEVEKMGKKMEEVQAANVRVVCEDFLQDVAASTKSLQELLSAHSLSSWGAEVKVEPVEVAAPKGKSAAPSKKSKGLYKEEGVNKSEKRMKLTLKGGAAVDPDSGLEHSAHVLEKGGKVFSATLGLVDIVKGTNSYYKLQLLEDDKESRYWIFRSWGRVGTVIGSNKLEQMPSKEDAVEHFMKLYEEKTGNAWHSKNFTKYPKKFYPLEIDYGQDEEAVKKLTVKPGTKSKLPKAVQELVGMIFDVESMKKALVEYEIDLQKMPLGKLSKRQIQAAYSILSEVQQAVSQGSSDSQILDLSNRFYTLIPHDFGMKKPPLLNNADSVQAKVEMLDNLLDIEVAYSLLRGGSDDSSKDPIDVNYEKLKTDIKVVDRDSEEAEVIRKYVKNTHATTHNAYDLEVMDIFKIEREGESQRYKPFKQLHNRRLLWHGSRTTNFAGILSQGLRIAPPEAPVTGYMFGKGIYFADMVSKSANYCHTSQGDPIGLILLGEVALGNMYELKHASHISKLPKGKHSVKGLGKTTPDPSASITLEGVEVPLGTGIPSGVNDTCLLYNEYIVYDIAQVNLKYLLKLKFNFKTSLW
The Chinese hamster ovary cells (CHO-K1) were cultured in RPMI1640 culture medium containing 10% fetal bovine serum (FBS). The cultured CHO-K1 cells were seeded into 96 well plate by 2.9×10^3 cells/well, and cultured for 16 hours under culture condition of 37° C., 5% CO2. After the culture, the cells were treated with the compounds of the Examples at varying concentrations, and cultured at 37° C. for 2 hours. […] The amount of […] released to the culture medium 3, 4, 5 hours after the treatment with MMS was quantified at 450 nm using Wallac EnVision™ (PerkinElmer Oy, Turku, Finland). The transference numbers of the compounds at varying concentrations according to the present invention are the average values obtained from four wells, and the results were calculated using regression analysis.
The Chinese hamster ovary cells (CHO-K1) were treated with the compounds at varying concentration according to the present invention, and the amount of NAD(P)H released into the culture medium 4 hours after the MMS treatment was quantified.

Where [3] appears, read: PARP-1 enzyme, histone ribosylation, 450 nm.

Structures can show the parent of a compound that is named as a salt. Where two headings read alike, the source gives them in different places. A value given as a limit tells only on which side of the number the result lay.

Sequence of PARP-1 enzyme (Homo sapiens (Human), UniProt P09874) (P09874 whole entry): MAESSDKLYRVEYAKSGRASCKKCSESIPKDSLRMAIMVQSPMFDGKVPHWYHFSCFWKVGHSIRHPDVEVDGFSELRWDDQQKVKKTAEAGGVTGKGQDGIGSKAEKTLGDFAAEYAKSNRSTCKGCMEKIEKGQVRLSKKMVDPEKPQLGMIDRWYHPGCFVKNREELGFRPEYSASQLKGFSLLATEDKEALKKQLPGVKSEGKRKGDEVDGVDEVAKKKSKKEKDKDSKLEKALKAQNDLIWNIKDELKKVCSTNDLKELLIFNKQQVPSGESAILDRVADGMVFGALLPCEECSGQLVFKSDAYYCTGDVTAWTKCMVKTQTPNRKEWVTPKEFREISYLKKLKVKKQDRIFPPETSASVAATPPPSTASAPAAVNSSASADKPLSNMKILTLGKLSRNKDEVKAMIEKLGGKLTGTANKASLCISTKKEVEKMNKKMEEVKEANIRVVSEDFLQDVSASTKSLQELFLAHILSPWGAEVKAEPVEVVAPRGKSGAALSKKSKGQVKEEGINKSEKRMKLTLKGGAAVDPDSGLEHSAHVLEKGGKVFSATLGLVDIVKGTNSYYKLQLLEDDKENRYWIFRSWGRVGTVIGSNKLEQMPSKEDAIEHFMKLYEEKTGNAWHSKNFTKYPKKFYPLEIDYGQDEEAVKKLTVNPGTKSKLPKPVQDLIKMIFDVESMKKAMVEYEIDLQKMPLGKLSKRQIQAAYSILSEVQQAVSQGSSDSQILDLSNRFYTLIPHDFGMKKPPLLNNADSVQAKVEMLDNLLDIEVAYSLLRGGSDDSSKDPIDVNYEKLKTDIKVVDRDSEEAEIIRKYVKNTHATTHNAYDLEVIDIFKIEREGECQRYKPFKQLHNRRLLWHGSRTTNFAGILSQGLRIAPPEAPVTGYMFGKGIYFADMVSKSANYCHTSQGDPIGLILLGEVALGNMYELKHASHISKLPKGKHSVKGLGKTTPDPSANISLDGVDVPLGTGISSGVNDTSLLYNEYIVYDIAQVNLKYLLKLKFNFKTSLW

In the case of `O=c1[nH]c2ccc(OCCCCN3CCCCC3)cc2c2c1CCCN2` [Example 29, 9-[4-(Piperidine-1yl)butoxy]-1,2,3,4-tetrahydrobenzo[h][1,6]naphthyridine-5(6H)-one dihydrochloride], the IC50 on PARP-1 enzyme [1] came to 2850 nM. For the same compound, the “SN-38 PF50” value with A549 cell line turned out to be 1.5; with SK-OV-3 Cell line, 1.5; in the assay with HT-29 Cell line, 1.5; in the assay on MCF-7 Cell line it was 2.2. Moreover, the “Temozolomide PF50” value with A549 cell line is given as 2.0; in the assay on SK-OV-3 Cell line, >1.7; in the assay on HT-29 Cell line, >1.2; in the assay with MCF-7 Cell line it was 2.1. Moreover, the GI50 with A549 cell line is > 100000 nM; in the assay with SK-OV-3 Cell line, > 100000 nM; with HT-29 Cell line it was 91000 nM; with MCF-7 Cell line, > 100000 nM.

Regarding `O=c1[nH]c2cc(CN3CCCCC3)ccc2c2c1CCCN2` [Example 48, 8-(Piperidine-1-ylmethyl)-1,2,3,4-tetrahydrobenzo[h][1,6]naphthyridine-5(6H)-one dihydrochloride], the values for the half-inhibitory concentration (IC50) at PARP-1 enzyme [1] and at PARP-1 enzyme [2] were 130 nM and 430 nM, respectively.

In the case of `CNCc1ccc2c3c(c(=O)[nH]c2c1)CCCN3` [Example 52, 8-[(Methylamino)methyl]-1,2,3,4-tetrahydrobenzo[h][1,6]naphthyridine-5(6H)-one dihydrochloride], the IC50 at PARP-1 enzyme [1] amounted to 70 nM. The “SN-38 PF50” value worked out at 2.2 in the assay on A549 cell line, 1.4 in the assay on SK-OV-3 Cell line, 1.4 in the assay on HT-29 Cell line and 1.1 in the assay on MCF-7 Cell line. Besides, the “Temozolomide PF50” value in the assay with A549 cell line is given as 1.5; in the assay on SK-OV-3 Cell line it was >2.2; in the assay on HT-29 Cell line, >1.3; with MCF-7 Cell line, 1.5. Moreover, the GI50 in the assay with A549 cell line was > 100000 nM; with SK-OV-3 Cell line, > 100000 nM; with HT-29 Cell line, 90000 nM; in the assay with MCF-7 Cell line it was > 100000 nM.

Regarding `CN(CCO)Cc1ccc2c3c(c(=O)[nH]c2c1)CCCN3` [Example 53, 8-{[(2-Hydroxyethyl)(methyl)amino]methyl}-1,2,3,4-tetrahydrobenzo[h][1,6]naphthyridine-5(6H)-one dihydrochloride], the IC50 on PARP-1 enzyme [1] was 50 nM; on PARP-1 enzyme [2], 290 nM.

`CCCN(C)Cc1ccc2c3c(c(=O)[nH]c2c1)CCCN3` [Example 56, 8-[(Methyl(propyl)amino)methyl]-1,2,3,4-tetrahydrobenzo[h][1,6]naphthyridine-5(6H)-one dihydrochloride]: the figures for the IC50 on PARP-1 enzyme [1] and at PARP-1 enzyme [2] were 180 nM and 470 nM, respectively.

With `CN(C)Cc1ccc2c3c(c(=O)[nH]c2c1)CCCN3C` [Example 66, 8-[(Dimethylamino)methyl]-1-methyl-1,2,3,4-tetrahydrobenzo[h][1,6]naphthyridine-5(6H)-one dihydrochloride], the half-inhibitory concentration (IC50) on PARP-1 enzyme [1] (setting [3]) is < 1000 nM; on PARP-1 enzyme [1], 90 nM; at PARP-1 enzyme [2] it was 320 nM.

`CNCc1cc(OC)c2c3c(c(=O)[nH]c2c1)CCCN3` [Example 73, 10-Methoxy-8-[(methylamino)methyl]-1,2,3,4-tetrahydrobenzo[h][1,6]naphthyridine-5(6H)-one dihydrochloride]: the figures for the half-maximal inhibitory concentration (IC50) on PARP-1 enzyme [1] and on PARP-1 enzyme [2] were 100 nM and 1390 nM, respectively.

Turning to `COc1cc(CNC(C)(C)C)cc2[nH]c(=O)c3c(c12)NCCC3` [Example 87, 8-[(t-Butylamino)methyl]-10-methoxy-1,2,3,4-tetrahydrobenzo[h][1,6]naphthyridine-5(6H)-one dihydrochloride], the values for the IC50 at PARP-1 enzyme [1] and on PARP-1 enzyme [2] were 610 nM and 820 nM, respectively.

Consider `CCOc1cc(CNC)cc2[nH]c(=O)c3c(c12)NCCC3` [Example 103, 10-Etoxy-8-[(methylamino)methyl]-1,2,3,4-tetrahydrobenzo[h][1,6]naphthyridine-5(6H)-one dihydrochloride], for which the IC50 at PARP-1 enzyme [1] (setting [3]) was determined as 120 nM; on PARP-1 enzyme [2] it was 820 nM.

Take `CCNCc1cc(OCC)c2c3c(c(=O)[nH]c2c1)CCCN3` [Example 104, 10-Etoxy-8-[(ethylamino)methyl]-1,2,3,4-tetrahydrobenzo[h][1,6]naphthyridine-5(6H)-one dihydrochloride]: the IC50 amounted to 60 nM on PARP-1 enzyme [1] (setting [3]) and 1650 nM on PARP-1 enzyme [2].

Regarding `COc1cc(CN2CCSCC2)cc2[nH]c(=O)c3c(c12)NCCC3` [Example 106, 10-Methoxy-8-(thiomorpholinomethyl)-1,2,3,4-tetrahydrobenzo[h][1,6]naphthyridine-5(6H)-one dihydrochloride], the IC50 on PARP-1 enzyme [1] was 90 nM; on PARP-1 enzyme [2], 290 nM.

In the case of `COc1cc(CN2CCC(N3CCOCC3)CC2)cc2[nH]c(=O)c3c(c12)NCCC3` [Example 108, 10-Methoxy-8-[(4-morpholinopiperidine-1-yl)methyl]-1,2,3,4-tetrahydrobenzo[h][1,6]naphthyridine-5(6H)-one trihydrochloride], the IC50 came to 140 nM at PARP-1 enzyme [1] and 110 nM on PARP-1 enzyme [2].

Regarding `COc1cc(CN)cc2[nH]c(=O)c3c(c12)NCCC3` [Example 109, 8-(Aminomethyl)-10-methoxy-1,2,3,4-tetrahydrobenzo[h][1,6]naphthyridine-5(6H)-one dihydrochloride], the IC50 at PARP-1 enzyme [1] came out at 70 nM; on PARP-1 enzyme [2], 940 nM.

For `CCCOc1cc(CN(C)C)cc2[nH]c(=O)c3c(c12)NCCC3` [Example 110, 8-[(Dimethylamino)methyl)]-10-propoxy-1,2,3,4-tetrahydrobenzo[h][1,6]naphthyridine-5(6H)-one dihydrochloride], the values for the half-maximal inhibitory concentration (IC50) at PARP-1 enzyme [1] (setting [3]) and on PARP-1 enzyme [2] were 80 nM and 90 nM, respectively.

`CCCOc1cc(CN2CCOCC2)cc2[nH]c(=O)c3c(c12)NCCC3` [Example 111, 8-(Morpholinomethyl)-10-propoxy-1,2,3,4-tetrahydrobenzo[h][1,6]naphthyridine-5(6H)-one dihydrochloride]: the IC50 amounted to 960 nM on PARP-1 enzyme [1] and 1330 nM at PARP-1 enzyme [2].

For `CCOc1cc(CN)cc2[nH]c(=O)c3c(c12)NCCC3` [Example 113, 8-(Aminomethyl)-10-etoxy-1,2,3,4-tetrahydrobenzo[h][1,6]naphthyridine-5 (6H)-one dihydrochloride], the IC50 at PARP-1 enzyme [1] (setting [3]) was 100 nM; at PARP-1 enzyme [2] it was 1430 nM.

In the case of `CCCOc1cc(CN)cc2[nH]c(=O)c3c(c12)NCCC3` [Example 114, 8-(Aminomethyl)-10-propoxy-1,2,3,4-tetrahydrobenzo[h][1,6]naphthyridine-5(6H)-one dihydrochloride], the IC50 was determined as 190 nM on PARP-1 enzyme [1] and 1920 nM on PARP-1 enzyme [2].

Consider `COCCOc1cc(CN2CCOCC2)cc2[nH]c(=O)c3c(c12)NCCC3` [Example 117, 10-(2-Methoxyetoxy)-8-(morpholinomethyl)-1,2,3,4-tetrahydrobenzo[h][1,6]naphthyridine-5(6H)-one dihydrochloride], for which the IC50 at PARP-1 enzyme [1] (setting [3]) is 610 nM; at PARP-1 enzyme [2], 6320 nM.

(Values after patent US8815891B2, “Tricyclic derivative or pharmaceutically acceptable salts thereof, preparation method thereof, and pharmaceutical composition containing the same” (Je Il Pharmaceutical Co., Ltd., priority 2008, dated 2014).)
